Reference: publication PMC7658267, “Effects of CYP46A1 Inhibition on Long-Term-Depression in Hippocampal Slices ex vivo and 24S-Hydroxycholesterol Levels in Mice in vivo” (Frontiers in Molecular Neuroscience, 2020)
pIC50: −log10 of the molar value. Where two headings read alike, the source gives them in different places.

Experiments:
Assay in all cases: biochemical
[1] = biological target: T1, Human 5-HT1A (Homo sapiens, UniProt P08908); set-up: CEREP off-target binding panel, per cent inhibition at 10 uM, n = 2
T1 construct: gene HTR1A

[2] = biological target: T2, Human 5-HT1B (Homo sapiens, UniProt P28222); set-up: CEREP off-target binding panel, per cent inhibition at 10 uM, n = 2
T2 construct: gene HTR1B
T2 sequence (P28222 whole entry): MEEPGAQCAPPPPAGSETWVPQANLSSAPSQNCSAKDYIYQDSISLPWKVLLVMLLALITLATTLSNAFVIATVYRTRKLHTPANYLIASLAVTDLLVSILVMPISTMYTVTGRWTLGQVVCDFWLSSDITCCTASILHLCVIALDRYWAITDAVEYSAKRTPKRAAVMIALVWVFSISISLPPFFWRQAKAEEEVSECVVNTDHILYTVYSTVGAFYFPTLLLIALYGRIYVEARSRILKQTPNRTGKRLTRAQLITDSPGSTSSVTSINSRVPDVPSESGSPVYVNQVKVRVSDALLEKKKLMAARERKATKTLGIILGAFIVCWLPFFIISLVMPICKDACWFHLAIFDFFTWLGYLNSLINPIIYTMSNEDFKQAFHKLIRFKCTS

[3] = biological target: T3, Human 5-HT2B (Homo sapiens, UniProt P41595); set-up: CEREP off-target binding panel, per cent inhibition at 10 uM, n = 2
T3 construct: gene HTR2B

[4] = biological target: T4, Human 5-HT6 (Homo sapiens, UniProt P50406); set-up: CEREP off-target binding panel, per cent inhibition at 10 uM, n = 2
T4 construct: gene HTR6

[5] = biological target: T5, Human A1 (Homo sapiens, UniProt P30542); set-up: CEREP off-target binding panel, per cent inhibition at 10 uM, n = 2
T5 construct: gene ADORA1
T5 sequence (P30542 whole entry): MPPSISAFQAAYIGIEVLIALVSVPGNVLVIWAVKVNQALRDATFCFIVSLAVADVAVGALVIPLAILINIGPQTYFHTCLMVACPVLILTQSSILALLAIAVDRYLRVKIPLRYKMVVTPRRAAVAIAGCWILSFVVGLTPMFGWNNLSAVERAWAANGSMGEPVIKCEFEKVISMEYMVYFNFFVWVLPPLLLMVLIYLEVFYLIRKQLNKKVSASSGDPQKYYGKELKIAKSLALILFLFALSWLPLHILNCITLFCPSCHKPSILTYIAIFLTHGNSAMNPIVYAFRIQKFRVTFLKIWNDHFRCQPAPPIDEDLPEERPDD

[6] = biological target: T6, Human A2A (Homo sapiens, UniProt P29274); set-up: CEREP off-target binding panel, per cent inhibition at 10 uM, n = 2
T6 construct: gene ADORA2A
T6 sequence (P29274 whole entry): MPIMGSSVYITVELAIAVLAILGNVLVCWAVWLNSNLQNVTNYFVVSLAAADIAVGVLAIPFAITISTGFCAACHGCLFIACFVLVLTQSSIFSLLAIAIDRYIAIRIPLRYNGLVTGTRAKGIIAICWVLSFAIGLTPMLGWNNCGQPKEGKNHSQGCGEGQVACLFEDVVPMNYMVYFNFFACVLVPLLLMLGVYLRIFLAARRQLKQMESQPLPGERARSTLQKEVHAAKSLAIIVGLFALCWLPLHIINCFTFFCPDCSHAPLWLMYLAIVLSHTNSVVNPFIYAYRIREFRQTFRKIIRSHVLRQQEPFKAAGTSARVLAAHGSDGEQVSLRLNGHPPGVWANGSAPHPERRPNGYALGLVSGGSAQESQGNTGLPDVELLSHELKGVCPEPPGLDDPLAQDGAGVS

[7] = biological target: Human AR (Homo sapiens, UniProt P10275); set-up: CEREP off-target binding panel, per cent inhibition at 10 uM, n = 2
[8] = biological target: T7, Human CB1 (Homo sapiens, UniProt P21554); set-up: CEREP off-target binding panel, per cent inhibition at 10 uM, n = 2
T7 construct: gene CNR1

[9] = biological target: Human CXCR2 (Homo sapiens, UniProt P25025); set-up: CEREP off-target binding panel, per cent inhibition at 10 uM, n = 2
[10] = biological target: T8, Human D1 (Homo sapiens, UniProt P21728); set-up: CEREP off-target binding panel, per cent inhibition at 10 uM, n = 2
T8 construct: gene DRD1
T8 sequence (P21728 whole entry): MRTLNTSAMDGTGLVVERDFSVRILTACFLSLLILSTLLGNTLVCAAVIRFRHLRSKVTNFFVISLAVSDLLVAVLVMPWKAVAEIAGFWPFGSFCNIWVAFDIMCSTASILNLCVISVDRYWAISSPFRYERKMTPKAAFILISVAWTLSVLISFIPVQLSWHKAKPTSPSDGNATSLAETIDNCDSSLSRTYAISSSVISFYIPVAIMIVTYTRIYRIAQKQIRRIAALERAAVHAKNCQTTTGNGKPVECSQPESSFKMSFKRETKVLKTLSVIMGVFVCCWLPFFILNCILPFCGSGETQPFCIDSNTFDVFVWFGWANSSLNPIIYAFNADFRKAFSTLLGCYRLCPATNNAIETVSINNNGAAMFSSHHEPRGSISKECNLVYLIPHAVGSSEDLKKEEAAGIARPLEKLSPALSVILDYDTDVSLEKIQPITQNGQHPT

[11] = biological target: T9, Human GR (Homo sapiens, UniProt P04150); set-up: CEREP off-target binding panel, per cent inhibition at 10 uM, n = 2
T9 construct: gene NR3C1

[12] = biological target: T10, Human KOP (Homo sapiens, UniProt P41145); set-up: CEREP off-target binding panel, per cent inhibition at 10 uM, n = 2
T10 construct: gene OPRK1
T10 sequence (P41145 whole entry): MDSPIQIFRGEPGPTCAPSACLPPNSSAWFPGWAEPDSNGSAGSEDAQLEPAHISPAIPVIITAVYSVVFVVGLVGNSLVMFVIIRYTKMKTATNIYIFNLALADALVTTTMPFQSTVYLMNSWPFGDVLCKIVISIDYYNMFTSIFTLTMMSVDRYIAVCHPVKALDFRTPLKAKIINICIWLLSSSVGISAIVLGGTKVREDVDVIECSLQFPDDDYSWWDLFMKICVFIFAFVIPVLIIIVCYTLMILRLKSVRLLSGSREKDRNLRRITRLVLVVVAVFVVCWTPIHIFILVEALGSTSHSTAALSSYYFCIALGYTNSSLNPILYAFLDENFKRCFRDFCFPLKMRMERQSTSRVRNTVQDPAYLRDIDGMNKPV

[13] = biological target: T11, Human M1 (Homo sapiens, UniProt P11229); set-up: CEREP off-target binding panel, per cent inhibition at 10 uM, n = 2
T11 construct: gene CHRM1
T11 sequence (P11229 whole entry): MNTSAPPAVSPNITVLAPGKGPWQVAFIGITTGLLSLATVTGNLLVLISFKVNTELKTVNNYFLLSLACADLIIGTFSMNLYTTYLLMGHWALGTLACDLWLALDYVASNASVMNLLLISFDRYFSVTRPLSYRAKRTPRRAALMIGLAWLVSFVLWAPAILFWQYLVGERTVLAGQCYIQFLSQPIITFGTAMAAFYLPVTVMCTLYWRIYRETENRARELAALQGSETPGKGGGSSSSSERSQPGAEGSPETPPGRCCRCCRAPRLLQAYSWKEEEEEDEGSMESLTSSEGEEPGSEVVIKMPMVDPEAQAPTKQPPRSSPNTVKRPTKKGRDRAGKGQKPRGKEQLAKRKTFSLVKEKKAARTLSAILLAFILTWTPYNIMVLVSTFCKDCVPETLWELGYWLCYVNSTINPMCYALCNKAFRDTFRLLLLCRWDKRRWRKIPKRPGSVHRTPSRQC

[14] = biological target: T12, Human NTS1 (Homo sapiens, UniProt P30989); set-up: CEREP off-target binding panel, per cent inhibition at 10 uM, n = 2
T12 construct: gene NTSR1
T12 sequence (P30989 whole entry): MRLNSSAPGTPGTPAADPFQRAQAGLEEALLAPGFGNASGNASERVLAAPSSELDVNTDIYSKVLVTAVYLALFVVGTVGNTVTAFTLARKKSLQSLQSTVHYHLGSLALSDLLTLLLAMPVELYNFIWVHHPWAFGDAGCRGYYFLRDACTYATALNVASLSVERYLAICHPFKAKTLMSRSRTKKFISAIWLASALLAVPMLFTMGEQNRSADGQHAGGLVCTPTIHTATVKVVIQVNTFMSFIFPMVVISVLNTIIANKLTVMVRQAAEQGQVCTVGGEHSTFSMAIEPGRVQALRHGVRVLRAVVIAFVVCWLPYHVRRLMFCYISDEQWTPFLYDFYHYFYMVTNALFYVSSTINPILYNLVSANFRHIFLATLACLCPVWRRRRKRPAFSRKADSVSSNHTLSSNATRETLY

[15] = biological target: T13, Human V1a (Homo sapiens, UniProt P37288); set-up: CEREP off-target binding panel, per cent inhibition at 10 uM, n = 2
T13 construct: gene AVPR1A

[16] = biological target: T14, Human VPAC1 (Homo sapiens, UniProt P32241); set-up: CEREP off-target binding panel, per cent inhibition at 10 uM, n = 2
T14 construct: gene VIPR1

[17] = biological target: T15, Human 5-HT transporter (Homo sapiens, UniProt P31645); set-up: CEREP off-target binding panel, per cent inhibition at 10 uM, n = 2
T15 construct: gene SLC6A4
T15 sequence (P31645 whole entry): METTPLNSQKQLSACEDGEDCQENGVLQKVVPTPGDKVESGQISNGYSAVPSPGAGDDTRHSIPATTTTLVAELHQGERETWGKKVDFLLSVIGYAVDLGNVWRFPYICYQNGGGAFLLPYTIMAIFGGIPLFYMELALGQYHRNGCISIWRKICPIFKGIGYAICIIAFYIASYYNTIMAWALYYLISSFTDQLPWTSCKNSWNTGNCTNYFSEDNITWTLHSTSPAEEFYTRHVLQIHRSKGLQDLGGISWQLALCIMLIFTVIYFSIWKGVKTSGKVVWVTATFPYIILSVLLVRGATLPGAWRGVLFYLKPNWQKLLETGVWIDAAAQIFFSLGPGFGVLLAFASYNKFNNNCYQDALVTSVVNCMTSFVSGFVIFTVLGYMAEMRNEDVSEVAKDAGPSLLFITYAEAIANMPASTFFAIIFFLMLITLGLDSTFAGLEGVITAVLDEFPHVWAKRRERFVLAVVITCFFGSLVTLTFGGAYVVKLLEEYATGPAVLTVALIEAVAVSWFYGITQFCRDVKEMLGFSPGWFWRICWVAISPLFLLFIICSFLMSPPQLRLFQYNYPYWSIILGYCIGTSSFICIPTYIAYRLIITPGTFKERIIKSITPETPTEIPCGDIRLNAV

[18] = biological target: T16, Human norepinephrine transporter (Homo sapiens, UniProt P23975); set-up: CEREP off-target binding panel, per cent inhibition at 10 uM, n = 2
T16 construct: gene SLC6A2
T16 sequence (P23975 whole entry): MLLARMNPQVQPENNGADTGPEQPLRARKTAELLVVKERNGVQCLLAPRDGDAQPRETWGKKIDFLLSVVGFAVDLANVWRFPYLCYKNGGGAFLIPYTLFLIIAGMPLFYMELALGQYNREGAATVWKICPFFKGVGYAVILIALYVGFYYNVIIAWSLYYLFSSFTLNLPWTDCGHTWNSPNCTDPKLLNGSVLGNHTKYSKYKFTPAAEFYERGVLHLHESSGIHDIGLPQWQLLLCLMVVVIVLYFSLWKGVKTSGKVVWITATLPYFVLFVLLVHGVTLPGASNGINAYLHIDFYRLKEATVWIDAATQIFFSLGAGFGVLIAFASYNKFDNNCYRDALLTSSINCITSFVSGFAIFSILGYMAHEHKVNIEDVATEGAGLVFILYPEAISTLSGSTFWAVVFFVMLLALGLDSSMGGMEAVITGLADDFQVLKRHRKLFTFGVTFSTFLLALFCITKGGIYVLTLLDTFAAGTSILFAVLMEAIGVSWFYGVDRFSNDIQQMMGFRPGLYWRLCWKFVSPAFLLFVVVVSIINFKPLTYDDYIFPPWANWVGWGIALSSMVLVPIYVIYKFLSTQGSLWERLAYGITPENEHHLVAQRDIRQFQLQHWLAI

[19] = biological target: T17, Human B2 (Homo sapiens, UniProt P30411); set-up: CEREP off-target binding panel, per cent inhibition at 10 uM, n = 2
T17 construct: gene BDKRB2

[20] = biological target: T18, Human dopamine transporter (Homo sapiens, UniProt Q01959); set-up: CEREP off-target binding panel, per cent inhibition at 10 uM, n = 2
T18 construct: gene SLC6A3

[21] = biological target: CYP1A2 (Homo sapiens, UniProt P05177); set-up: CYP off-target inhibition panel
Chain of CYP1A2 (P05177 whole entry): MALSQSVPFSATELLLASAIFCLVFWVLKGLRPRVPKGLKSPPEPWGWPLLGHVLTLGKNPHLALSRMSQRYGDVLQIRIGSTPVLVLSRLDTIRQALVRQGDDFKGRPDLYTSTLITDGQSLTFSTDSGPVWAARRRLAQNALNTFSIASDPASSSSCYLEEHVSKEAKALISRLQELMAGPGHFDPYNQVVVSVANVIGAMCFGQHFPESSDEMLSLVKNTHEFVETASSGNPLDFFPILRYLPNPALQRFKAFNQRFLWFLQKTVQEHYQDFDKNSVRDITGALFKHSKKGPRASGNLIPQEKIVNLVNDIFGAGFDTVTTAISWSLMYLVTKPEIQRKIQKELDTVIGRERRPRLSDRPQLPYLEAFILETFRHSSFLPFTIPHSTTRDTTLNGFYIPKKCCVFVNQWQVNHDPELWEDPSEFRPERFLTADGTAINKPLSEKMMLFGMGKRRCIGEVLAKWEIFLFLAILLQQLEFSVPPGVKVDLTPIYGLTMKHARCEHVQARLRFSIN

[22] = biological target: CYP2C8 (Homo sapiens, UniProt P10632); set-up: CYP off-target inhibition panel
[23] = biological target: CYP2C19 (Homo sapiens, UniProt P33261); set-up: CYP off-target inhibition panel
[24] = biological target: T19, CCK1 (Homo sapiens, UniProt P32238); set-up: CEREP radioligand binding panel, percent inhibition of specific binding
T19 construct: gene CCKAR

[25] = biological target: T20, GAL2 (Homo sapiens, UniProt O43603); set-up: CEREP radioligand binding panel, percent inhibition of specific binding
T20 construct: gene GALR2

[26] = biological target: T21, MT1 (Homo sapiens, UniProt P48039); set-up: CEREP radioligand binding panel, percent inhibition of specific binding
T21 construct: gene MTNR1A
T21 sequence (P48039 whole entry): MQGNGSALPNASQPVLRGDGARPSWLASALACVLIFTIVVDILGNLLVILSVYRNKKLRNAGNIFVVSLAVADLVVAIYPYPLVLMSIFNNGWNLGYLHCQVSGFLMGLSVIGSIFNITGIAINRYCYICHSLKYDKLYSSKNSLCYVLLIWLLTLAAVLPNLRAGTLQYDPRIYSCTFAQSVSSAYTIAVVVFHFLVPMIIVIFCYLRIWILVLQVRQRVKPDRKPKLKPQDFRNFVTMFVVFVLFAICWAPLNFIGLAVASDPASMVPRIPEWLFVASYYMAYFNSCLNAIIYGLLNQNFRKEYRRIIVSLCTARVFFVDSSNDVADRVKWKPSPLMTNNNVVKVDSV

O=C(c1cnc2c(-c3cnco3)cc(C(F)(F)F)cn12)N1C2CCC1COC2 [compound 1, (3-oxa-8-azabicyclo[3.2.1]octan-8-yl)(8-(oxazol-5-yl)-6-(trifluoromethyl)imidazo[1,2-a]pyridin-3-yl)methanone]
inhibition at 10 µM [1]: 12.4%
inhibition at 10 µM [2]: -8.4%
inhibition at 10 µM [3]: -2.8%
inhibition at 10 µM [4]: -0.7%
inhibition at 10 µM [5]: 32%
inhibition at 10 µM [6]: 1.1%
inhibition at 10 µM [7]: -2%
inhibition at 10 µM [8]: -34.7%
inhibition at 10 µM [9]: -11.3%
inhibition at 10 µM [10]: 2.4%
inhibition at 10 µM [11]: -8.6%
inhibition at 10 µM [12]: 8%
inhibition at 10 µM [13]: 3.3%
inhibition at 10 µM [14]: -9.7%
inhibition at 10 µM [15]: -7.4%
inhibition at 10 µM [16]: 5.5%
inhibition at 10 µM [17]: 1.2%
inhibition at 10 µM [18]: -14.5%
inhibition at 10 µM [19]: 6.9%
inhibition at 10 µM [20]: 2.1%
pIC50 [21]: 5.20
pIC50 [22]: < 4.30
pIC50 [23]: < 4.30
inhibition at 10 µM [24]: 7.1%
inhibition at 10 µM [25]: -7.2%
inhibition at 10 µM [26]: 1.7%

O=C(c1cccnc1-c1ccncn1)N1CCC(O)(Cc2ccc(F)cc2)CC1 [compound 2, (4-(4-fluorobenzyl)-4-hydroxypiperidin-1-yl)(2-(pyrimidin-4-yl)pyridin-3-yl)methanone]
inhibition at 10 µM [1]: 10.8%
inhibition at 10 µM [2]: -13.3%
inhibition at 10 µM [3]: -2.4%
inhibition at 10 µM [4]: 0.9%
inhibition at 10 µM [5]: 12.2%
inhibition at 10 µM [6]: -2.6%
inhibition at 10 µM [7]: 3.1%
inhibition at 10 µM [8]: -9.2%
inhibition at 10 µM [9]: -1.5%
inhibition at 10 µM [10]: -5.3%
inhibition at 10 µM [11]: -0.6%
inhibition at 10 µM [12]: -5.2%
inhibition at 10 µM [13]: -8.6%
inhibition at 10 µM [14]: -12.2%
inhibition at 10 µM [15]: 2.8%
inhibition at 10 µM [16]: -1.9%
inhibition at 10 µM [17]: 0.1%
inhibition at 10 µM [18]: -3.6%
inhibition at 10 µM [19]: 8.4%
inhibition at 10 µM [20]: 13.8%
pIC50 ([21]; read-out: compound 2): < 4.30
pIC50 ([22]; read-out: compound 2): < 4.30
pIC50 ([23]; read-out: compound 2): < 4.30
inhibition at 10 µM [24]: -4.7%
inhibition at 10 µM [25]: 0%
inhibition at 10 µM [26]: 8.3%
